In patent publication US20070205140A1, “Method of Removing Sulfides Including Hydrogen Sulfide and Mercaptan” (K - I CHEMICAL INDUSTRY CO., LTD., priority 2004, published 2007):

What was measured:
[1] = Test Example 1: removal of hydrogen sulfide from hexane, FPD gas chromatography; conditions: for Test sample A Hydrogen sulfide concentration: 100 ppm hydrogen sulfide, 100 ppm compound; for effect of removing hydrogen sulfide (in words): summary of Table 1
Description: Two 200-ml four-neck flasks were provided. Hexane (100 ml) was placed in the flask equipped with a bubbling device. In the other flask, iron sulfide underwent a reaction with the dropwise addition of hydrochloric acid, resulting the generation of hydrogen sulfide. Then, hexane was subjected to bubbling with hydrogen sulfide that had been transferred via a tube. Thus, test samples at a hydrogen sulfide concentration of 100 ppm were prepared. The measurement of hydrogen sulfide concentration was carried out by FPD gas chromatography (using a flame photometric detector). Stock solution of BNPA, DBNE, and BNP (100 ppm each) were separately added to the test samples, followed by stirring for a given period of time. The hydrogen sulfide concentration of each sample was measured in a time-dependent manner.

[2] = Test Example 2: removal of methyl mercaptan gas by formulation in closed bag, detector tube; conditions: for Methyl mercaptan gas concentration: 1 ml formulation, methyl mercaptan gas at 500 ppm; for effect of removing methyl mercaptan (in words): summary of Table 2
Description: A formulation containing BNPA was previously prepared in accordance with Formulation example 1. With the use of DBNE and BNP instead of BNPA, formulations containing DBNE and BNP, respectively, were prepared, in accordance with formulation example 1. Each formulation (1 ml) was dispensed into a glass petri dish covered with a plastic bag. Then, each plastic bag was closed after being filled with methyl mercaptan gas at 500 ppm. The methyl mercaptan gas was allowed to come into contact with the formulation for a given time. Thereafter, the methyl mercaptan gas concentration was measured using a detector tube.

[3] = Test Example 3: removal of hydrogen sulfide dissolved in water, methylene blue colorimetric method; conditions: for removal of hydrogen sulfide dissolved in water (in words): summary of Table 3; for Residual hydrogen sulfide concentration: water, test compound 500 ppm, stirring for 10 minutes, ND = complete removal
Description: Distilled water was bubbled with hydrogen sulfide gas. Thus, a hydrogen sulfide-dissolved solution (5 mgS/l) was prepared. The solution was placed in separate beakers. Then, formulations that were prepared in accordance with Test example 2 were separately added thereto in a manner such that the concentration of each test compound became 500 ppm, followed by stirring for 10 minutes. Thereafter, the residual hydrogen sulfide concentration was measured. The measurement was carried out using “Pack Tests” (Kyoritsu Chemical-Check Lab., Corp.) in accordance with a methylene blue colorimetric method.

[4] = Test Example 4: removal of hydrogen sulfide gas by formulation in closed bag, detector tube; conditions: for Hydrogen sulfide concentration: 1 ml formulation, 1 liter hydrogen sulfide gas at 500 ppm; for removal of hydrogen sulfide gas (in words): summary of Table 4
Description: A formulation containing BNPA was previously prepared in accordance with Formulation example 1. With the use of BNP instead of BNPA, a formulation containing BNP was prepared in accordance with formulation example 1.
Iron sulfide and hydrochloric acid were allowed to react with each other, resulting in the generation of hydrogen sulfide. Thus, hydrogen sulfide gas at a concentration of 500 ppm was prepared. Each formulation (1 ml) was placed in a glass petri dish covered with a plastic bag. Then, each plastic bag was closed after being filled with 1 liter of hydrogen sulfide gas. At 24 and 48 hours later, the hydrogen sulfide gas concentration was measured using a detector tube.

[5] = Test Example 5: removal of hydrogen sulfide dissolved in water, 30 minutes stirring, methylene blue colorimetric method; conditions: for residual hydrogen sulfide (in words): summary of Table 5
Description: Distilled water was bubbled with a hydrogen sulfide gas. Thus, a solution containing dissolved hydrogen sulfide (5 mgS/l) was prepared. The solution was placed in separate beakers. Then, formulations that were prepared in accordance with Test example 4 were separately added thereto in a manner such that the concentration of each test compound became 500 ppm, followed by stirring for 30 minutes using a stirrer. Thereafter, the residual hydrogen sulfide concentration was measured. The measurement was carried out using “Pack Tests” (Kyoritsu Chemical-Check Lab., Corp.) in accordance with a methylene blue colorimetric method.

Row | SMILES | Test sample A Hydrogen sulfide concentration ([1]; contact time 0 minutes) | Test sample A Hydrogen sulfide concentration ([1]; contact time 10 minutes) | Test sample A Hydrogen sulfide concentration ([1]; contact time 30 minutes) | Test sample A Hydrogen sulfide concentration ([1]; contact time 60 minutes) | effect of removing hydrogen sulfide (in words) [1] | Methyl mercaptan gas concentration ([2]; contact time 0 hours) | Methyl mercaptan gas concentration ([2]; contact time 24 hours) | Methyl mercaptan gas concentration ([2]; contact time 48 hours) | effect of removing methyl mercaptan (in words) [2] | removal of hydrogen sulfide dissolved in water (in words) [3] | Residual hydrogen sulfide concentration [3] | Hydrogen sulfide concentration ([4]; contact time 0 hours) | Hydrogen sulfide concentration ([4]; contact time 24 hours) | Hydrogen sulfide concentration ([4]; contact time 48 hours) | removal of hydrogen sulfide gas (in words) [4] | residual hydrogen sulfide (in words) [5] | Residual hydrogen sulfide concentration ([5]; water 5 mgS/l, test compound 500 ppm, stirring for 30 minutes, ND = no hydrogen sulfide observed)
1 | O=[N+]([O-])C(Br)(CO)CO [BNP, 2-bromo-2-nitro-1,3-propanediol] | 100 ppm | 81 ppm | 77 ppm | 68 ppm | the removal efficiency was poor | 500 ppm | 485 ppm | 461 ppm | almost no effect of removing methyl mercaptan | very low capacity for removing hydrogen sulfide | 18 mgS/l | 500 ppm | 480 ppm | 470 ppm | complete removal was not achieved | residual hydrogen sulfide was observed | 1 mgS/l
2 | CC(=O)OCC(Br)(COC(C)=O)[N+](=O)[O-] [BNPA, 2-bromo-2-nitropropane-1,3-diyl diacetate] | 100 ppm | 38 ppm | 14 ppm | 2 ppm | had an effect of removing hydrogen sulfide | 500 ppm | 283 ppm | 0 ppm | complete removal of methyl mercaptan gas was achieved after 48 hours | complete removal of hydrogen sulfide | – | 500 ppm | 210 ppm | 0 ppm | complete removal of hydrogen sulfide was achieved after 48 hours | no hydrogen sulfide was observed | –
3 | O=[N+]([O-])C(Br)(Br)CO [DBNE, 2,2-dibromo-2-nitroethanol] | 100 ppm | 42 ppm | 25 ppm | 11 ppm | had an effect of removing hydrogen sulfide | 500 ppm | 358 ppm | 29 ppm | confirmed to have the effect of removing methyl mercaptan | confirmed to have an effect of removing hydrogen sulfide | 5 mgS/l | – | – | – | – | – | –
